In patent US20250326639A1, “METHOD FOR PRODUCING HYDROGEN PEROXIDE” (ARKEMA FRANCE, priority 2022, published 2025):

What was measured:
[1] = Solubility of 2-ethyltetrahydroanthrahydroquinone in tested solvents (protocol of the patent); details: 2-THEAHQ dissolved in the tested lactone solvent; hydrogenation of parent quinone, cooled until precipitation, liquid chromatography
Protocol: In the following examples, the solubilities of 2-ethyltetrahydroanthrahydroquinone (2-THEAHQ) were tested in different solvents in accordance with the protocols detailed below.
For 2-ethyltetrahydroanthrahydroquinone, the solubilities were determined by dissolving a weighed amount of the parent quinone in the tested solvent. After the addition of a Pd-based catalyst to the solution, the mixture was hydrogenated until hydrogen absorption ceases, and then cooled until precipitation occurs.
The samples were analysed by liquid chromatography. Reference mixtures were prepared for calibration.

[2] = Flash point, closed-cup apparatus, ASTM-D3278; assay type: physicochemical
Text: The flash point may be determined using a closed-cup apparatus in accordance with the standard ASTM-D3278.

[3] = Vapour pressure by ebulliometry, ASTM-E1719; assay type: physicochemical
Text: The vapour pressure may be determined by ebulliometry in accordance with the standard ASTM-E1719.

[4] = Specific gravity by hydrometer, ASTM-D891; assay type: physicochemical
Text: The specific gravity may be determined by means of a hydrometer in accordance with the standard ASTM-D891.

[5] = Solubility in water by coulometric Karl Fischer titration, ASTM-D6304; assay type: physicochemical
Text: The solubility in water may be determined by coulometric Karl Fischer titration in accordance with the standard ASTM-D6304.

Structure (SMILES): CCCCC1CCC(=O)O1 (stereo not drawn) [γ-octalactone]
- Solubility of 2-THEAHQ [1]: 281 mg/mL

Structure (SMILES): O=C1CCO1 [β-propiolactone]
- Flash point (° C.) [2]: 70 °C
- Vapour pressure (Pa) [3]: 418 Pa
- Solubility of 2-THEAHQ [1]: 70 mg/mL
- Specific gravity [4]: 1.137

Structure (SMILES): CCCCCCCC1CCCC(=O)O1 (stereo not drawn) [δ-dodecalactone]
- Flash point (° C.) [2]: 168 °C
- Vapour pressure (Pa) [3]: 0.05 Pa
- Solubility of 2-THEAHQ [1]: 276 mg/mL
- Specific gravity [4]: 0.962
- Solubility in water [5]: 1113 mg/kg

Structure (SMILES): CC1CC(=O)O1 (stereo not drawn) [β-butyrolactone]
- Flash point (° C.) [2]: 74 °C
- Vapour pressure (Pa) [3]: 212 Pa
- Specific gravity [4]: 1.076
- Solubility in water (mg/kg) [5]: 158.9 10^3 mg/kg

Structure (SMILES): O=C1CCCO1 [γ-butyrolactone]
- Flash point (° C.) [2]: 97 °C
- Vapour pressure (Pa) [3]: 87 Pa
- Specific gravity [4]: 1.136
- Solubility in water (mg/kg) [5]: 484.3 10^3 mg/kg
